These are literature values, as cited in patent US4195171A, “Derivatives of an antibiotic XK-62-2 and process for the production thereof” (Abbott Laboratories, priority 1975, dated 1980).

The conditions of the data set: cited from earlier work.

Turning to `CNCC1CCC(N)C(OC2C(N)CC(N)C(OC3OCC(C)(O)C(NC)C3O)C2O)O1` (centres unmarked) [XK-62-2], the solubility in acetone result (acetone) is reported as “slightly soluble”. The solubility in benzene entry (benzene) is on record as “insoluble”. The solubility in chloroform entry (chloroform) is recorded as “insoluble”. Further, under “ethanol”, the solubility in ethanol entry is recorded as “slightly soluble”. The “solubility in ethyl acetate” value (ethyl acetate) is “insoluble”. Also, the solubility in methanol result (methanol) was “freely soluble”. Also, the solubility in n-hexane result (n-hexane) is “insoluble”. For the same compound, where the note is “water”, the solubility in water entry is “freely soluble”.
